# Marks after values point to notes of the source that are not given here.
# Experiments:
# Format in all cases: in vivo
# [1] = tested on: PCOS induced by letrozole in female Wistar rats; test: Body weight in letrozole-induced PCOS
# Procedure: (§1) Animals and Experimental design: Animals were housed under standard air-conditioned laboratory conditions. The temperature was maintained at maximum: 24° C. and a minimum of 23° C. and Relative humidity at maximum: 63% and a minimum of 48% with 12 h light and 12 h dark cycle. The maximum and minimum temperature and relative humidity in the experimental room were recorded once daily. Female virgin Wistar rats (150-200 g) was checked daily for 4-day ovarian cycle using vaginal cytology. PCOS was induced by oral administration of aromatase inhibitor, letrozole (1 mg/kg) dissolved in 0.5% CMC (2 mg/kg) for 21 days. During the experiment, the estrous cycle was monitored by the analyses of relative proportion of leukocytes, epithelial and cornified cells in vaginal smears. Following letrozole administration, test samples were administered to animals from day 22 to day 36. After treatment protocol, animal from all groups (Table 1) were fasted overnight and anesthetized with diethylether/halothane. The blood was collected by retino-orbital puncture, then serum was separated by centrifugation followed by estimation of hormones and other biochemical parameters using commercially available ELISA kits. The serum hormone levels, body weight and ovary weigh of the animals were assessed to ascertain the effective dose.
# [2] = tested on: PCOS induced by letrozole in female Wistar rats; test: Serum hormonal levels (17-β estradiol, progesterone, FSH, LH) in letrozole-induced PCOS; conditions: day 22 to day 36
# Procedure: as §1
# [3] = tested on: PCOS induced by letrozole in female Wistar rats; test: Ovarian weight in letrozole-induced PCOS; conditions: day 22 to day 36
# Procedure: as §1
# [4] = tested on: PCOS induced by letrozole in female Wistar rats; test: Thyroid function analysis (serum T3, T4, TSH) in PCOS
# Procedure: Animals and Experimental design: Animals were housed under standard air-conditioned laboratory conditions. The temperature was maintained at maximum: 24° C. and a minimum of 23° C. and Relative humidity at maximum: 63% and a minimum of 48% with 12 h light and 12 h dark cycle. The maximum and minimum temperature and relative humidity in the experimental room were recorded once daily. Female virgin Wistar rats (150-200 g) was checked daily for 4-day ovarian cycle using vaginal cytology. PCOS was induced by oral administration of aromatase inhibitor, letrozole (1 mg/kg) dissolved in 0.5% CMC (2 mg/kg) for 21 days. During the experiment, the estrous cycle was monitored by the analyses of relative proportion of leukocytes, epithelial and cornified cells in vaginal smears.
# Following letrozole administration, test samples were administered to animals from day 22 to day 36. After treatment protocol, animal from all groups (Table 1) were fasted overnight and anesthetized with diethylether/halothane. The blood was collected by retino-orbital puncture, then serum was separated by centrifugation followed by estimation of hormones and other biochemical parameters using commercially available ELISA kits.
# Based on the above results, the following groups were taken for further analysis BDMC 25 mg/kg p.o. • BDMC 50 mg/kg p.o. • AC3 100 mg/kg p.o. • AC3 200 mg/kg p.o.
# The following molecular targets were assessed: • 1. Thyroid Function analysis • 2. Effect on androgen profile • 3. Effect on serum adiponectin levels • 4. Insulin resistance • 5. Effect on Serum Paraoxonase 1 Activity • 6. Effect of gut microbiota • 7. Oxidative stress and inflammatory markers Thyroid Function Analysis
smiles,measurement,setting,value
"O=C(/C=C/c1ccc(O)cc1)CC(=O)/C=C/c1ccc(O)cc1 [BDMC, bisdemethoxycurcumin]",Average body weight,"[1]; 3.12 mg/kg from day 22, Day 28 (PCOS + Treatment)",202 ± 4.15 g
same,Average body weight,"[1]; 3.12 mg/kg from day 22, Day 36 (PCOS + Treatment)",200 ± 6.36 g
same,Average body weight,"[1]; 3.12 mg/kg group, Day 1 (PCOS induction, before treatment)",158 ± 6.16 g
same,Average body weight,"[1]; 3.12 mg/kg group, Day 7 (PCOS induction, before treatment)",175 ± 5.27 g
same,Average body weight,"[1]; 3.12 mg/kg group, Day 14 (PCOS induction, before treatment)",194 ± 5.77 g
same,Average body weight,"[1]; 3.12 mg/kg group, Day 21 (PCOS induction, before treatment)",210 ± 7.58 g
same,Average body weight,"[1]; 6.25 mg/kg from day 22, Day 28 (PCOS + Treatment)",201 ± 6.88 g
same,Average body weight,"[1]; 6.25 mg/kg from day 22, Day 36 (PCOS + Treatment)",198 ± 6.45 g
same,Average body weight,"[1]; 6.25 mg/kg group, Day 1 (PCOS induction, before treatment)",157 ± 8.15 g
same,Average body weight,"[1]; 6.25 mg/kg group, Day 7 (PCOS induction, before treatment)",175.3 ± 4.5 g
same,Average body weight,"[1]; 6.25 mg/kg group, Day 14 (PCOS induction, before treatment)",195.5 ± 6.6 g
same,Average body weight,"[1]; 6.25 mg/kg group, Day 21 (PCOS induction, before treatment)",215 ± 5.78 g
same,Average body weight,"[1]; 12.5 mg/kg from day 22, Day 28 (PCOS + Treatment)",200 ± 6.57 g
same,Average body weight,"[1]; 12.5 mg/kg from day 22, Day 36 (PCOS + Treatment)",196 ± 5.26 g
same,Average body weight,"[1]; 12.5 mg/kg group, Day 1 (PCOS induction, before treatment)",158 ± 7.88 g
same,Average body weight,"[1]; 12.5 mg/kg group, Day 7 (PCOS induction, before treatment)",174 ± 2.83 g
same,Average body weight,"[1]; 12.5 mg/kg group, Day 14 (PCOS induction, before treatment)",202.5 ± 8.12^ g
same,Average body weight,"[1]; 12.5 mg/kg group, Day 21 (PCOS induction, before treatment)",212 ± 6.36 g
same,Average body weight,"[1]; 25 mg/kg from day 22, Day 28 (PCOS + Treatment)",201 ± 5.54 g
same,Average body weight,"[1]; 25 mg/kg from day 22, Day 36 (PCOS + Treatment)",191 ± 5.84 g
same,Average body weight,"[1]; 25 mg/kg group, Day 1 (PCOS induction, before treatment)",157.5 ± 8.16^ g
same,Average body weight,"[1]; 25 mg/kg group, Day 7 (PCOS induction, before treatment)",172 ± 6.46 g
same,Average body weight,"[1]; 25 mg/kg group, Day 14 (PCOS induction, before treatment)",190.5 ± 4.44^ g
same,Average body weight,"[1]; 25 mg/kg group, Day 21 (PCOS induction, before treatment)",210 ± 5.12 g
same,Average body weight,"[1]; 50 mg/kg from day 22, Day 28 (PCOS + Treatment)",199 ± 8.15 g
same,Average body weight,"[1]; 50 mg/kg from day 22, Day 36 (PCOS + Treatment)",192 ± 6.36 g
same,Average body weight,"[1]; 50 mg/kg group, Day 1 (PCOS induction, before treatment)",157 ± 6.13 g
same,Average body weight,"[1]; 50 mg/kg group, Day 7 (PCOS induction, before treatment)",168 ± 5.47 g
same,Average body weight,"[1]; 50 mg/kg group, Day 14 (PCOS induction, before treatment)",190 ± 10.42 g
same,Average body weight,"[1]; 50 mg/kg group, Day 21 (PCOS induction, before treatment)",211 ± 7.58 g
same,Serum hormonal levels 17-β estradiol,[2]; 3.12 mg/kg,16.89 ± 3.01 pg/mL
same,Serum hormonal levels FSH,[2]; 3.12 mg/kg,10.54 ± 1.44 mIU/mL
same,Serum hormonal levels LH,[2]; 3.12 mg/kg,26.33 ± 3.02 mIU/mL
same,Serum hormonal levels Progesterone,[2]; 3.12 mg/kg,18.67 ± 1.03 ng/mL
same,Serum hormonal levels 17-β estradiol,[2]; 6.25 mg/kg,18.22 ± 2.44 pg/mL
same,Serum hormonal levels FSH,[2]; 6.25 mg/kg,10.98 ± 1.52 mIU/mL
same,Serum hormonal levels LH,[2]; 6.25 mg/kg,27.32 ± 2.30 mIU/mL
same,Serum hormonal levels Progesterone,[2]; 6.25 mg/kg,20.56 ± 1.09 ng/mL
same,Serum hormonal levels 17-β estradiol,[2]; 12.5 mg/kg,18.89 ± 1.65 pg/mL
same,Serum hormonal levels FSH,[2]; 12.5 mg/kg,12.58 ± 1.08 mIU/mL
same,Serum hormonal levels LH,[2]; 12.5 mg/kg,24.36 ± 2.11 mIU/mL
same,Serum hormonal levels Progesterone,[2]; 12.5 mg/kg,23.50 ± 2.21 ng/mL
same,Serum hormonal levels 17-β estradiol,[2]; 25 mg/kg,22.50 ± 1.67 pg/mL
same,Serum hormonal levels FSH,[2]; 25 mg/kg,13.28 ± 1.34 mIU/mL
same,Serum hormonal levels LH,[2]; 25 mg/kg,21.54 ± 1.26 mIU/mL
same,Serum hormonal levels Progesterone,[2]; 25 mg/kg,26.95 ± 1.53 ng/mL
same,Serum hormonal levels 17-β estradiol,[2]; 50 mg/kg,21.26 ± 2.32 pg/mL
same,Serum hormonal levels FSH,[2]; 50 mg/kg,13.07 ± 1.36 mIU/mL
same,Serum hormonal levels LH,[2]; 50 mg/kg,22.78 ± 1.76 mIU/mL
same,Serum hormonal levels Progesterone,[2]; 50 mg/kg,26.28 ± 1.22 ng/mL
same,Ovarian weight,[3]; 3.12 mg/kg,63.88 ± 2.19 mg
same,Ovarian weight,[3]; 6.25 mg/kg,59.64 ± 2.32 mg
same,Ovarian weight,[3]; 12.5 mg/kg,54.36 ± 2.80 mg
same,Ovarian weight,[3]; 25 mg/kg,47.88 ± 2.76 mg
same,Ovarian weight,[3]; 50 mg/kg,48.54 ± 2.42 mg
same,Serum hormonal levels T3,[4]; 25 mg/kg p.o.,3.3 ± 0.18 μIU/ml
same,Serum hormonal levels T4,[4]; 25 mg/kg p.o.,11.78 ± 0.39 μIU/ml
same,Serum hormonal levels TSH,[4]; 25 mg/kg p.o.,5.28** nmol/L
same,Serum hormonal levels T3,[4]; 50 mg/kg p.o.,3.05 ± 0.17 μIU/ml
same,Serum hormonal levels T4,[4]; 50 mg/kg p.o.,10.45 ± 0.27 μIU/ml
same,Serum hormonal levels TSH,[4]; 50 mg/kg p.o.,7.12** nmol/L

# From patent publication US12233032B2, “Compositions for management of polycystic ovary syndrome” (Sami-Sabinsa Group Limited, priority 2021, dated 2025)
